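Following 48 hours of exposure in 96-well plates, responses at five concentrations were used to interpolate endpoints linearly. GI50: concentration for 50% inhibition of growth. Definition used: TGI = concentration required for complete inhibition of growth.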
Tests used:
Assay in all cases: inhibition of tumour cell growth, NCI panel, 48 h
NCI-H522 lung = test system: NCI-H522 lung
SNB-75 CNS = test system: SNB-75 CNS
SF-268 CNS = test system: SF-268 CNS
HT29 colon = test system: HT29 colon
MDA-N = test system: MDA-N
HCT-15 colon = test system: HCT-15 colon
CCRF-CEM leukemia = test system: CCRF-CEM leukemia
NCI-H23 lung = test system: NCI-H23 lung
MDA-MB-231 breast = test system: MDA-MB-231 breast
UACC-62 melanoma = test system: UACC-62 melanoma
HOP-62 NSCLC = test system: HOP-62 NSCLC
RPMI-8226 leukemia = test system: RPMI-8226 leukemia
A549 NSCLC = test system: A549 NSCLC
OVCAR-5 ovarian = test system: OVCAR-5 ovarian
M14 melanoma = test system: M14 melanoma
EKVX NSCLC = test system: EKVX NSCLC
HL-60(TB) leukemia = test system: HL-60(TB) leukemia
NCI-H226 lung = test system: NCI-H226 lung
A498 renal = test system: A498 renal
DU-145 prostate = test system: DU-145 prostate
SF-295 CNS = test system: SF-295 CNS
KM12 colon = test system: KM12 colon
HS 578T breast = test system: HS 578T breast
ACHN renal = test system: ACHN renal
SN12C renal = test system: SN12C renal
HCT-116 colon = test system: HCT-116 colon
SK-MEL-2 melanoma = test system: SK-MEL-2 melanoma
OVCAR-8 ovarian = test system: OVCAR-8 ovarian
COLO 205 colon = test system: COLO 205 colon
U251 CNS = test system: U251 CNS
SW-620 colon = test system: SW-620 colon
BT-549 breast = test system: BT-549 breast
SNB-19 CNS = test system: SNB-19 CNS
MDA-MB-435 = test system: MDA-MB-435
CAKI-1 renal = test system: CAKI-1 renal
SK-MEL-5 melanoma = test system: SK-MEL-5 melanoma
OVCAR-3 ovarian = test system: OVCAR-3 ovarian
MOLT-4 leukemia = test system: MOLT-4 leukemia
786-0 renal = test system: 786-0 renal
TK-10 renal = test system: TK-10 renal
SK-OV-3 ovarian = test system: SK-OV-3 ovarian
RXF 393 renal = test system: RXF 393 renal
OVCAR-4 ovarian = test system: OVCAR-4 ovarian
UACC-257 melanoma = test system: UACC-257 melanoma
NCI/ADR-RES ovarian = test system: NCI/ADR-RES ovarian
PC-3 prostate = test system: PC-3 prostate
SK-MEL-28 melanoma = test system: SK-MEL-28 melanoma
K-562 leukemia = test system: K-562 leukemia
NCI-H460 lung = test system: NCI-H460 lung
IGROV1 ovarian = test system: IGROV1 ovarian
MALME-3M melanoma = test system: MALME-3M melanoma
UO-31 renal = test system: UO-31 renal
SF-539 CNS = test system: SF-539 CNS
T-47D breast = test system: T-47D breast
SR leukemia = test system: SR leukemia
HOP-92 NSCLC = test system: HOP-92 NSCLC
MCF7 breast = test system: MCF7 breast
HCC-2998 colon = test system: HCC-2998 colon
LOX IMVI melanoma = test system: LOX IMVI melanoma

## CC1CC(N)=Nc2ccccc2N1Cc1ccccc1 (stereo unspecified)
NCI-H522 lung
  TGI: 25.3 µM
SNB-75 CNS
  TGI: 20.8 µM
SF-268 CNS
  TGI: 26.4 µM
HT29 colon
  TGI: 27.4 µM
MDA-N
  TGI: 39.6 µM
HCT-15 colon
  TGI: 29.9 µM
CCRF-CEM leukemia
  TGI: 33.7 µM
NCI-H23 lung
  TGI: 31.1 µM
MDA-MB-231 breast
  TGI: 27.4 µM
UACC-62 melanoma
  TGI: 27.2 µM
HOP-62 NSCLC
  TGI: 27.2 µM
RPMI-8226 leukemia
  TGI: 17.2 µM
A549 NSCLC
  TGI: 32.7 µM
OVCAR-5 ovarian
  TGI: > 100 µM
M14 melanoma
  TGI: 29.3 µM
EKVX NSCLC
  TGI: 63.9 µM
HL-60(TB) leukemia
  TGI: 19.5 µM
NCI-H226 lung
  TGI: 30.9 µM
A498 renal
  TGI: 23.3 µM
DU-145 prostate
  TGI: 32.7 µM
SF-295 CNS
  TGI: 27.8 µM
KM12 colon
  TGI: 28.2 µM
HS 578T breast
  TGI: 23.8 µM
ACHN renal
  TGI: 28.5 µM
SN12C renal
  TGI: 30.2 µM
HCT-116 colon
  TGI: > 100 µM
SK-MEL-2 melanoma
  TGI: 27.4 µM
OVCAR-8 ovarian
  TGI: 27.8 µM
COLO 205 colon
  TGI: 28.1 µM
U251 CNS
  TGI: 28.4 µM
SW-620 colon
  TGI: 25.2 µM
BT-549 breast
  TGI: 26 µM
SNB-19 CNS
  TGI: 30.9 µM
MDA-MB-435
  TGI: 26.8 µM
CAKI-1 renal
  TGI: 25.2 µM
SK-MEL-5 melanoma
  TGI: 27.8 µM
OVCAR-3 ovarian
  TGI: 24.9 µM
MOLT-4 leukemia
  TGI: 18.4 µM
786-0 renal
  TGI: > 100 µM
TK-10 renal
  TGI: 28.2 µM
SK-OV-3 ovarian
  TGI: 25.9 µM
RXF 393 renal
  TGI: 24.4 µM
OVCAR-4 ovarian
  TGI: 34.5 µM
UACC-257 melanoma
  TGI: 25.5 µM
NCI/ADR-RES ovarian
  TGI: 28.4 µM
PC-3 prostate
  TGI: 28.2 µM
SK-MEL-28 melanoma
  TGI: 23.8 µM
K-562 leukemia
  TGI: 15.7 µM
NCI-H460 lung
  TGI: 26.8 µM
IGROV1 ovarian
  TGI: 19.9 µM
MALME-3M melanoma
  TGI: 15.4 µM
UO-31 renal
  TGI: 42.3 µM

## COc1ccc(-c2coc3ncnc(N)c23)cc1
NCI-H522 lung
  GI50: > 25 µM
  TGI: > 25 µM
SNB-75 CNS
  GI50: > 25 µM
  TGI: > 25 µM
SF-268 CNS
  GI50: > 25 µM
  TGI: > 25 µM
HT29 colon
  GI50: > 25 µM
  TGI: > 25 µM
HCT-15 colon
  GI50: > 25 µM
  TGI: > 25 µM
CCRF-CEM leukemia
  GI50: > 25 µM
  TGI: > 25 µM
NCI-H23 lung
  GI50: > 25 µM
  TGI: > 25 µM
MDA-MB-231 breast
  GI50: > 25 µM
  TGI: > 25 µM
UACC-62 melanoma
  GI50: > 25 µM
  TGI: > 25 µM
SF-539 CNS
  GI50: > 25 µM
  TGI: > 25 µM
HOP-62 NSCLC
  GI50: > 25 µM
  TGI: > 25 µM
RPMI-8226 leukemia
  GI50: > 25 µM
  TGI: > 25 µM
A549 NSCLC
  GI50: > 25 µM
  TGI: > 25 µM
OVCAR-5 ovarian
  GI50: > 25 µM
  TGI: > 25 µM
M14 melanoma
  GI50: > 25 µM
  TGI: > 25 µM
EKVX NSCLC
  GI50: > 25 µM
  TGI: > 25 µM
HL-60(TB) leukemia
  GI50: > 25 µM
  TGI: > 25 µM
NCI-H226 lung
  GI50: > 25 µM
  TGI: > 25 µM
A498 renal
  GI50: 13.7 µM
  TGI: > 25 µM
DU-145 prostate
  GI50: > 25 µM
  TGI: > 25 µM
SF-295 CNS
  GI50: > 25 µM
  TGI: > 25 µM
KM12 colon
  GI50: > 25 µM
  TGI: > 25 µM
T-47D breast
  GI50: > 25 µM
  TGI: > 25 µM
SR leukemia
  GI50: > 25 µM
  TGI: > 25 µM
HS 578T breast
  GI50: > 25 µM
  TGI: > 25 µM
HOP-92 NSCLC
  GI50: > 14 µM
  TGI: > 25 µM
ACHN renal
  GI50: > 25 µM
  TGI: > 25 µM
MCF7 breast
  GI50: > 25 µM
  TGI: > 25 µM
SN12C renal
  GI50: > 25 µM
  TGI: > 25 µM
HCC-2998 colon
  GI50: > 25 µM
  TGI: > 25 µM
HCT-116 colon
  GI50: > 25 µM
  TGI: > 25 µM
SK-MEL-2 melanoma
  GI50: > 25 µM
  TGI: > 25 µM
OVCAR-8 ovarian
  GI50: > 25 µM
  TGI: > 25 µM
COLO 205 colon
  GI50: > 25 µM
  TGI: > 25 µM
U251 CNS
  GI50: > 25 µM
  TGI: > 25 µM
SW-620 colon
  GI50: > 25 µM
  TGI: > 25 µM
BT-549 breast
  GI50: > 25 µM
  TGI: > 25 µM
LOX IMVI melanoma
  GI50: > 25 µM
  TGI: > 25 µM
SNB-19 CNS
  GI50: > 25 µM
  TGI: > 25 µM
MDA-MB-435
  GI50: > 25 µM
  TGI: > 25 µM
CAKI-1 renal
  GI50: > 25 µM
  TGI: > 25 µM
SK-MEL-5 melanoma
  GI50: > 25 µM
  TGI: > 25 µM
OVCAR-3 ovarian
  GI50: > 25 µM
  TGI: > 25 µM
MOLT-4 leukemia
  GI50: > 25 µM
  TGI: > 25 µM
786-0 renal
  GI50: > 25 µM
  TGI: > 25 µM
TK-10 renal
  GI50: > 25 µM
  TGI: > 25 µM
SK-OV-3 ovarian
  GI50: > 25 µM
  TGI: > 25 µM
RXF 393 renal
  GI50: > 25 µM
  TGI: > 25 µM
OVCAR-4 ovarian
  GI50: > 25 µM
  TGI: > 25 µM
UACC-257 melanoma
  GI50: > 25 µM
  TGI: > 25 µM
NCI/ADR-RES ovarian
  GI50: > 25 µM
  TGI: > 25 µM
PC-3 prostate
  GI50: > 25 µM
  TGI: > 25 µM
SK-MEL-28 melanoma
  GI50: > 25 µM
  TGI: > 25 µM
K-562 leukemia
  GI50: > 25 µM
  TGI: > 25 µM
NCI-H460 lung
  GI50: > 25 µM
  TGI: > 25 µM
IGROV1 ovarian
  GI50: > 25 µM
  TGI: > 25 µM
MALME-3M melanoma
  GI50: > 25 µM
  TGI: > 25 µM
UO-31 renal
  GI50: > 25 µM
  TGI: > 25 µM

## N=c1c2c(ncn1N)Oc1c(c(-c3ccccc3)nn1-c1ccccc1)C2c1ccc(Cl)cc1 (stereo unspecified)
SNB-75 CNS
  TGI: 2.83 µM
HT29 colon
  TGI: 2.77 µM
MDA-N
  TGI: 3.86 µM
HCT-15 colon
  TGI: 3.65 µM
CCRF-CEM leukemia
  TGI: > 100 µM
NCI-H23 lung
  TGI: 3.31 µM
MDA-MB-231 breast
  TGI: 5.21 µM
UACC-62 melanoma
  TGI: 3.16 µM
HOP-62 NSCLC
  TGI: 3.02 µM
RPMI-8226 leukemia
  TGI: > 100 µM
OVCAR-5 ovarian
  TGI: 2.93 µM
M14 melanoma
  TGI: 3.18 µM
EKVX NSCLC
  TGI: 3.39 µM
HL-60(TB) leukemia
  TGI: > 100 µM
A498 renal
  TGI: 4.32 µM
KM12 colon
  TGI: 2.99 µM
T-47D breast
  TGI: 4.99 µM
SR leukemia
  TGI: > 100 µM
ACHN renal
  TGI: 3.46 µM
SN12C renal
  TGI: 3.89 µM
HCC-2998 colon
  TGI: 3.08 µM
HCT-116 colon
  TGI: 3.03 µM
SK-MEL-2 melanoma
  TGI: 3.1 µM
SW-620 colon
  TGI: 4.5 µM
SNB-19 CNS
  TGI: 2.86 µM
MDA-MB-435
  TGI: 3.46 µM
CAKI-1 renal
  TGI: 3.71 µM
OVCAR-3 ovarian
  TGI: 3.11 µM
MOLT-4 leukemia
  TGI: > 100 µM
TK-10 renal
  TGI: 3.47 µM
SK-OV-3 ovarian
  TGI: 3.37 µM
OVCAR-4 ovarian
  TGI: 3.24 µM
UACC-257 melanoma
  TGI: 3.71 µM
PC-3 prostate
  TGI: 3.01 µM
K-562 leukemia
  TGI: > 100 µM
NCI-H460 lung
  TGI: 2.99 µM
IGROV1 ovarian
  TGI: 2.8 µM
MALME-3M melanoma
  TGI: 3.1 µM
